What was measured:
H460 cells [1] = assay: Soft agar colony assay (anchorage-independent cell growth); assay type: cell-based, Human; details: vs mock or control siRNA/shRNA cells; 27-mers at 5 nM
Protocol: H460 cells were transfected with βIII-tubulin siRNA or control siRNA for 24 h as described above. Cells from each sample (1,000 cells per dish) were resuspended in 0.33% agar (37° C.) in RPMI containing 20% FCS, and plated onto 0.5% solidified agar/20% FCS/RPMI (37° C., bottom supportive layer) in 35 mm dishes. Triplicate plates were set up for each sample. The plates were placed at 4° C. for 10 min to solidify the top agar and then incubated at 37° C. in 5% CO2 for 12 days. After 12 days of culture, the colonies were counted and photographed using the Zeiss Axiovert S100 inverted microscope, 5× objective and SPOT digital camera (Thornwood, N.Y.).

class III β-tubulin = assay: Knockdown of class III β-tubulin expression (western blot, RT-PCR); assay type: cell-based, Human; details: H460, subculturing time course
Protocol: The effects of βIII-tubulin siRNA transfection on the gene and protein expression of the isotype, were assessed by RT-PCR and western blotting. For RT-PCR, total RNA was extracted from the transfected cells using the Trizol® reagent (Invitrogen), according to the manufacturer's instructions. RNA samples were DNAse-treated, reverse transcribed for RT-PCR analysis using methodology and specific primers as described in detail previously (Kavallaris et al. (1997) J Clin Invest 100, 1282-1293). B eta-2-micro globulin (β2M) was used as an internal mRNA control. Preparation of protein lysates and Western blot analysis were performed as follows. […] Primary antibodies were detected using horseradish peroxidase-linked secondary antibody (Amersham Pharmacia Biotech, Uppsala, Sweden) and enhanced chemiluminescence (GE Healthcare, Uppsala, Sweden) was used for detection. The blots were scanned using the Typhoon® scanner and quantified using ImageQuant® software version 5.2 (Molecular Dynamics Inc, Sunnyvale, Calif.). […]

NSCLC H460 cells = assay: Drug-treated clonogenic assay (surviving fraction, ID50) on siRNA/shRNA-transfected cells; assay type: cell-based, Human; details: for RS (relative sensitivity): Table 3
Protocol: Cells were transfected for 24 h and approximately 600 cells (for Calu-6) or 150 cells (for H460) were seeded into each well of a 6-well plate and allowed to attach for 4-6 h. The cell lines used in this study were not subject to prior drug selection, and are likely to represent intrinsic drug resistance observed in lung carcinoma.
Cells were then treated with increasing concentrations of various anti-mitotic drugs. Following a 3-day incubation at 37° C., the drug-containing medium was removed and replaced with fresh complete medium. Medium was changed at 3-4 day intervals for 7 to 10 days until visible colonies formed. […] Surviving colonies were simultaneously fixed and stained with 0.5% crystal violet in methanol, rinsed with water to remove excess stain and air-dried overnight.
The colonies in each well were manually counted, and the results were presented as surviving fraction according to the formula: surviving fraction was calculated as follows: colony number/(number of cells seeded×plating efficiency), where plating efficiency is equivalent to the colony number divided by the number of cells seeded in the drug-free medium. Dose-response curves were plotted for each drug-cell line combination and inhibitory dose (ID50) values were extrapolated from this curve using GraphPad Prism program (GraphPad Software, version 4, San Diego, Calif.). ID50 was defined as the concentration of the drug required to reduce the number of colonies in drug-treated wells to 50% of that of the relevant untreated control wells. The ID50 values were the means of at least four independent experiments.
To quantitate any change in drug sensitivity, drug treated clonogenic assays were performed. Twenty-four hours after siRNA transfection, cells were harvested and plated into 6-well plates for 6 h, prior to the addition of various drugs as indicated in the figure legends. After 72 h incubation, the drug-containing media was removed and replaced with complete growth media. Medium was changed every 3 days for 7 to 10 days until visible colonies formed. Colonies were simultaneously fixed and stained with 0.5% crystal violet in methanol, and manually counted. Individual stained colonies in each well were counted and the surviving fraction was calculated as follows: colony number/(number of cells seeded×plating efficiency), where plating efficiency equals the colony number divided by the number of cells seeded in drug-free media.

H460 cells [2] = assay: Apoptosis induction, Annexin V-FITC flow cytometry; assay type: cell-based, Human; details: βIII-tubulin siRNA vs control siRNA cells, 48 h; paclitaxel 1, 2, 5 nM; cisplatin 0.4 or 1 μM
Protocol: Annexin V-FITC staining followed by flow cytometry analysis was performed to address whether the increase in the sub-G1 population following exposure to tubulin-binding agents in the βIII-tubulin siRNA treated cells was related to an increase in apoptosis induction. Apoptosis induction was determined by transfecting H460 cells with siRNA for 72 h and harvesting (adherent and suspension) cells 48 h after drug treatment, as previously described in Pasquier et al., Mol Cancer Ther 2004; 3:1301-10. Briefly, 1×10^5 cells were incubated with Annexin V-FITC and propidium iodide for 15 min in the dark (Becton-Dickinson), immediately followed by flow cytometry using a FACSCalibur (Becton-Dickinson). Cytogram analysis was performed using CellQuest® software.

[3] = tested on: H460 cells stably expressing control or class III β-tubulin shRNA in subcutaneous tumors; assay: Nude mouse xenograft, cisplatin (CDDP) treatment of tumors from H460 shRNA clones; assay type: in vivo, BALB/c athymic nude mice; details: 3 doses CDDP 3.33 mg/kg over 3 days
Protocol: FIG. 22 is a column chart illustrating the mean number of days for tumor to reach 1000 mm^3 post-treatment with cisplatin (CDDP) or phosphate buffered saline control (PBS) in a nude mouse xenograft animal model. Graphs illustrate results for control shRNA clones 1 and 2 with and without CDDP treatment and βIII-tubulin shRNA clones 4 and 59 with and without CDDP treatment. Once tumors reached approx 300 mm3 mice were treated with 3 doses of CDDP 3.33 mg/kg over 3 days or its vehicle control (PBS). Tumors were then measured twice weekly and mice were sacrificed once tumors reached 1000 mm^3 (n=5 mice per treatment group). Mean number of days were: Control clone 1 (PBS) 15.6 days±4.95; Control clone 1 (CDDP) 13 days±4.21; Control clone 2 (PBS) 7.2 days±1.5; Control clone 2 (CDDP) 10.8 days±3.54; class III 3-tubulin shRNA clone 4 (PBS) 15.6 days±3.12; class III β-tubulin shRNA clone 4 (CDDP) 35 days±3.03; class III β-tubulin shRNA clone 59 (PBS) 15.6 days±2.11; class III β-tubulin shRNA clone 59 (CDDP) 29.4 days±3.93.
FIG. 24A is a plot of tumor volume over time in a nude mouse xenograft animal model following treatment with cisplatin (CDDP) or phosphate buffered saline control (PBS). Tumor size was plotted in mm^3 for control clone 2 with or without CDDP post-treatment and class III β-tubulin shRNA clone 4 with and without CDDP post-treatment. Once tumors reached approx 300 mm^3 mice were treated with 3 doses of CDDP (3.33 mg/kg) over 3 days or its vehicle control (PBS). Tumors were then measured twice weekly and mice sacrificed once tumors reached 1000 mm^3 FIG. 24B illustrates Kaplin Meier survival curves for tumors of two different clones with or without class III β-tubulin silencing and following CDDP or PBS vehicle treatment in vivo. Clone 2 was a control clone and clone 4 was class III β-tubulin silenced with shRNA. FIG. 24C is a plot of tumor size over time in a nude mouse xenograft animal model following treatment with cisplatin (CDDP) or phosphate buffered saline control (PBS). […] Tumors were then measured twice weekly and mice sacrificed once tumors reached 1000 mm^3 FIG. 24D illustrates Kaplin Meier survival curves for control clone 2 with and without CDDP post-treatment and for class III β-tubulin shRNA clone 59 with and without CDDP post-treatment. […]
Female BALB/c athymic nude mice (5-6 week old) were maintained under pathogen-free conditions. […] The animals were monitored twice a week from the second week post-injection for tumor formation and health status. Tumor diameter was measured twice per week using a digital caliper throughout the experiment, and tumor volume in mm^3 was calculated using the formula: Volume=(length×width×depth)/2. […]

Compound | number of colonies in soft agar (H460 cells [1]) | duration of class III β-tubulin protein knockdown (class III β-tubulin) [days] | RS (relative sensitivity) (NSCLC H460 cells; Ctrl clone 2 compared to ctrl clone 1) | RS (relative sensitivity) (NSCLC H460 cells; βIII shRNA clone 4 compared to ctrl clone 1) | RS (relative sensitivity) (NSCLC H460 cells; βIII shRNA clone 59 compared to ctrl clone 1) | RS (relative sensitivity) (NSCLC H460 cells; βIII shRNA clone 60 compared to ctrl clone 1) | change in drug sensitivity (clonogenic survival) (NSCLC H460 cells; βIII-tubulin siRNA silencing vs controls, H460) | percentage of apoptotic cells (H460 cells [2]) | mean number of days for tumor to reach 1000 mm^3 post-treatment ([3]; Control clone 1) [days] | mean number of days for tumor to reach 1000 mm^3 post-treatment ([3]; Control clone 2) [days] | mean number of days for tumor to reach 1000 mm^3 post-treatment ([3]; class III β-tubulin shRNA clone 4) [days] | mean number of days for tumor to reach 1000 mm^3 post-treatment ([3]; class III β-tubulin shRNA clone 59) [days]
27-mer βIII siRNA Sequence-8: 27-mer siRNA to class III β-tubulin, SEQ ID NO: 11 and 12, position 1521-1545 (chain 1 AGACAGAGACAGGAGCAGCUCACACGU; chain 2 GUGUGAGCUGCUCCUGUCUCUGUCT; chemistry not given here) | significantly less colonies | – | – | – | – | – | – | – | – | – | – | –
27-mer βIII siRNA Sequence-11: 27-mer siRNA to class III β-tubulin, SEQ ID NO: 13 and 14, position 1352-1376 (chain 1 UCUCACUCCAGCUGCGAGCAGCUUCAC; chain 2 GAAGCUGCUCGCAGCUGGAGUGAGA; listed as RNA, chemistry not given here) | significantly less colonies | 6 | – | – | – | – | – | – | – | – | – | –
[NH2][Pt]([NH2])([Cl])[Cl] [CDDP, cisplatin] | – | – | (1.06, NS) | (2.42, 0.0002***) | (1.86, 0.001**) | (1.72, 0.0019**) | increased sensitivity | significant increase in the number of apoptotic cells | 13 | 10.8 | 35 | 29.4

Source: patent publication US20100159030A1, “METHODS FOR DETECTING AND MODULATING THE SENSITIVITY OF TUMOR CELLS TO ANTI-MITOTIC AGENTS AND FOR MODULATING TURMORGENICITY” (NewSouth Innovations Pty Limited, priority 2007, published 2010)
